Assay results as given in BigSolDB 2.1.

CC(CO)(CO)C(=O)O
solubility (mole fraction)
Conditions | in 1,4-dioxane | in MIBK | in cyclopentyl methyl ether | in ethyl acetate | in gamma-butyrolactone | in gamma-valerolactone | in n-butyl acetate
298.15 K | 0.00778 | 0.0149 | 0.00164 | 0.00368 | 0.00637 | 0.00643 | 0.00173
303.15 K | 0.00937 | 0.0164 | 0.00194 | 0.00388 | 0.00793 | 0.008 | 0.00199
308.15 K | 0.0124 | 0.0172 | 0.00239 | 0.00447 | 0.00942 | 0.00913 | 0.00234
313.15 K | 0.0147 | 0.0186 | 0.00276 | 0.00507 | 0.012 | 0.0107 | 0.00268
318.15 K | 0.0178 | 0.0192 | 0.00329 | 0.00646 | 0.0148 | 0.0124 | 0.00294
323.15 K | 0.0219 | 0.0202 | 0.00366 | 0.00745 | 0.0187 | 0.0146 | 0.00381
328.15 K | 0.0258 | 0.022 | 0.00381 | 0.00824 | 0.0214 | 0.0183 | 0.00433
333.15 K | 0.0334 | 0.0244 | 0.00433 | 0.0124 | 0.026 | 0.0218 | 0.00528
338.15 K | 0.0365 | 0.0259 | 0.00501 | 0.0147 | 0.0315 | 0.0251 | 0.00572
343.15 K | 0.041 | 0.0274 | 0.00598 | – | 0.0367 | 0.0305 | 0.00685
345.15 K | 0.0442 | – | – | – | 0.0392 | 0.0324 | –
348.15 K | 0.0479 | 0.0288 | 0.00621 | – | 0.042 | 0.037 | 0.00763
350.15 K | 0.0501 | – | – | – | 0.048 | 0.0386 | –
353.15 K | 0.0535 | 0.0296 | 0.00906 | – | 0.0529 | 0.0406 | 0.00902
